In patent publication US6589762B1, “Calcafluor screen for chitin biosynthesis inhibitors” (priority 1993, dated 2003):

Key:
[1] = test system: Saccharomyces cerevisiae strain Y294; test: Calcofluor rescue screen (disk or well diffusion); assay type: cell-based
Description: A preferred method comprises adding a test sample to a Saccharomyces cerevisiae culture containing calcofluor white or a calcofluor white derivative. The test sample is introduced to a disk or a well on a culture plate in a standard diffusion assay using solidified media, or introduced into one of a series of equivalent tissue culture tubes or bottles in a standard turbidity assay using liquid media. The culture is incubated for such time under such conditions sufficient to observe yeast cell growth inhibition in a corresponding culture or culture plate area containing calcofluor white but no test sample. The extent of growth of the culture containing or surrounding the test sample is compared with the extent of growth in the culture or culture area containing no test sample. The presence of chitin synthesis inhibition is determined by observing whether growth in the presence of test sample exceeds growth in its absence. In a culture plate, this is a turbid zone of growth surrounding the test sample. In a culture tube series, this is enhanced turbidity.
autoclaving at 20 lbs for 15 min. Strain Y294 having genotype MATα leu2-3,112 ura3-52 his3Δ trp1 GAL+[CIR+] inoculated into this liquid media and grown overnight, an OD600 of ˜5 or greater, while being shaken at 30° C.
The plates are poured and test samples are placed on the plates. A ¼″ disk containing […] of nikkomycin Z is used as a positive control. The plates are incubated at 30° C. for two days and then examined for activity. Actives produce a turbid zone surrounding the test sample.
All compounds are tested by disk diffusion assay using the method of this invention at a rate of 20 μg/disk.

[2] = test system: selected phytopathogenic fungi (Pseudocercosporella herpotrichoides, Rhizoctonia solani, Fusarium oxysporum); test: In vitro fungicide discovery screen (growth in nutrient agar); assay type: cell-based; conditions: 25 μg/ml
Description: Standard in vitro and in vivo fungicide discovery screens are employed as tertiary tests to prioritize actives from the calcofluor rescue screen and the secondary screens. […] These include fungi causing wheat eyespot (Pseudocercosporella herpotrichoides), rice sheath blight (Rhizoctonia solani) and damping off (Fusarium oxysporum); all synthesize chitin-containing cell walls. High potency fungicides are active against these species in the 10 ppm range (10 μg/ml), while nikkomycin Z can be detected at ˜70 μg/ml in the calcofluor rescue assay if 30 μl volumes are tested in welled plates.

[3] = test system: strain ECY36-3D (relies on chitin synthase isozyme 2); test: In vivo secondary screen, growth of chitin synthase mutant yeast; assay type: cell-based, Saccharomyces cerevisiae; conditions: for growth of strain ECY36-3D (in words): strain producing only Chs2
Description: (§1) One type of calcofluor rescue secondary screen is an in vivo test that assays the effect of compounds on the growth of chitin synthase mutant yeast strains that rely on a single chitin synthase isozyme for survival. A number of these strains have been described, such as the strains that rely on chitin synthase isozymes 2 or 3 described by Shaw, J. A., et al. (J. Cell Biol. 114: 111-123 (1991)) and similar strains described in the Examples section below. In this type of secondary screening test, the test sample added to and incubated in a culture of a mutant yeast strain producing only chitin synthase 2 or 3 (denoted, respectively, Chs2 and Chs3) for such time under such conditions sufficient to observe growth in a corresponding culture containing no test sample. A comparison of the extent of growth in the culture containing test sample with growth in its absence is then made. Inhibition of growth in the presence of test sample indicates inhibition of synthase isozyme produced by the strain. Any type of growth assessment may be employed but, as in the primary calcofluor rescue screen, preferred cultures in the secondary screen are solid, with test samples applied to a disk or well, so that cell growth can be easily determined by visual inspection.
(§2) Especially preferred in vivo secondary screens employ a pair of genetically related strains, one producing one isozyme, e.g., Chs2, and the other producing a different isozyme, e.g., Chs3. Using pairs allows for the simultaneous determination that culture conditions are appropriate for growth in the absence of inhibition and the identification of which isozyme may be affected by inhibition. The pairs, for example, include the ECY36-3C and ECY36-3D strains described by Shaw, cited above, that produce only Chs3 and Chs 2, respectively, and similar pairs such as SSY640-10A (containing only Chs3) and SSY-638-3B (containing only Chs 2) described in the Examples below. […] In a similar manner, a comparison of differential effects observed in the growth of strain pairs in the presence of a test sample allows for the putative identification of which isozyme is affected by the sample.
(§3) In Vivo Secondary Screens. The in vivo calcofluor rescue secondary screens assay the differential effect of compounds on the growth of two pairs of yeast strains. Each strain in the pairs, denoted ECY36-3C and ECY36-3D and SSY640-10A and SSY638-3B, is a chitin synthase mutant that relies on the expression of a single chitin synthase isozyme for its survival.
(§4) Strains ECY36-3C and ECY36-3D are described by Shaw, J. A., et al., cited above. ECY36-3C has the genotype MATa, chs1-23, chs2::LEU2, ura3-52, leu2-3,112, trp1-1 and ECY36-3D has the genotype MATa, chs1-23, ca1^R1 (chs3^−), ura3-52, leu2-3,112, trp1-1. Both strains are segregants from crossing strain ECY33-18A (Mata, chs1-23, ca1^R1, ura3-52, leu2-3,112, trp1-1) and ECY19 Δ22 2-5B (MATα, chs1-23, chs2::LEU2, ura3-52, leu2-3,112, trp1-1) using standard methodology. ECY36-3C relies on the expression of chitin synthase isozyme 3 for survival, and ECY36-3D relies on chitin synthase isozyme 2 (Chs2).
(§5) Strains ECY36-3C and ECY36-3D are inoculated in SD medium containing nutritional supplements appropriate to strain growth, e.g., containing about 0.01% (w/v) each of uracil, adenine sulfate, leucine, tryptophan, histidine, and lysine. When the cultures reach stationary phase (typically after 24 hours), they are used immediately or stored at 4° C. for up to a week before use. The cultures are diluted 1/100 into YEPD medium containing 2% agar which has been maintained at ˜50° C., immediately poured into petri dishes, and allowed to cool. Test compounds are applied to cellulose filter disks as described in Example 1 above (e.g., nikkomycin Z, 4 μl of a 5 mg/ml solution), and the disks are applied to the agar. Plates are incubated at 30° C. overnight and growth inhibitory zones are measured around the disks after 24 hours. […]

[4] = test system: strain ECY36-3C (relies on chitin synthase isozyme 3); test: as above; assay type: cell-based, Saccharomyces cerevisiae; conditions: for growth of strain ECY36-3C (in words): strain producing only Chs3
Description: as §1, §2, §3, §4, §5

[5] = filter disk on YEPD agar, 24 hours, total applied: Nikkomycin Z 25 μg, Test Compound 1 45 μg, Test Compound 2 200 μg

C[C@@H]([C@H](N)C(=O)N[C@H](C(=O)O)[C@H]1O[C@@H](n2ccc(=O)[nH]c2=O)[C@H](O)[C@@H]1O)[C@H](O)c1ccc(O)cn1 [nikkomycin Z]
concentration at which detected in the calcofluor rescue assay ([1]; 30 μl volumes tested in welled plates): ~70 µg/mL | activity in the calcofluor rescue screen (turbid zone of growth) ([1]; disk diffusion assay, 20 μg/disk, 30° C., two days): active | activity against phytopathogenic fungi [2]: weakly active | zone of inhibition, ECY36-3D [3, 5]: 0 mm | growth of strain ECY36-3D (in words) [3]: unaffected | growth of strain ECY36-3D (in words) ([3]; listed as Nikkomycin Z): does not inhibit growth | differential effect on Chs3-only versus Chs2-only strains ([4]; comparison of strain pairs): inhibits Chs3 to a significantly greater extent than Chs2 | zone of inhibition, ECY36-3C [4, 5]: 21 mm | growth of strain ECY36-3C (in words) [4]: inhibited | growth of strain ECY36-3C (in words) ([4]; listed as Nikkomycin Z): inhibit the growth
